Test results published in US20190352276A1, “INHIBITORS OF BRUTON'S TYROSINE KINASE” (Joint Stock Company "Biocad", priority 2016, published 2019).

Legend:
[1] = Chemical stability in artificial gastric fluid (SGF without enzymes); settings: 10 μM in SGF without enzymes, pH=1.4, 37° C.
[2] = test system: HepG2 cells (hepatocellular carcinoma); assay: General cytotoxicity on HepG2 cells (CC50; therapeutic index CC50 HepG2/IC50 Mino); format: cell-based; settings: Table 10; therapeutic index
Summary of the method: (§1)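 Cells seeded at 2*10^4 per well in DMEM, compounds added after 24 h at 200 μM to 4 μM final and incubated 72 h. Viability read with Alamar Blue to derive CC50; therapeutic index is CC50 (HepG2) divided by IC50 (Mino).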

[3] = as above; format: cell-based; settings: human, HepG2 cells (hepatocellular carcinoma); Table 10; 72 hours, Alamar Blue; average of several tests
Summary of the method: as §1

[4] = test system: Z-138 (mantle cell lymphoma); assay: Antiproliferative activity, Z-138 cells (Alamar Blue); format: cell-based; settings: Homo sapiens, Table 10, 72 h, average of several tests
Summary of the method: (§2)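 After at least one passage post-thaw, cells were seeded at ≈3*10^4 per well in RPMI-1640 containing 10% FBS. They were treated with compound dilutions (DMSO under 1%) for 72 h and then with Alamar Blue for 14-16 h. Living-cell fluorescence at 540/590 nm gave IC50 values through logistic fitting.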

[5] = test system: Mino (mantle cell lymphoma); assay: Antiproliferative activity, Mino cells (Alamar Blue); format: cell-based; settings: Homo sapiens, Table 10, 72 h, average of several tests
Summary of the method: as §2

[6] = test system: DOHH2 (follicular lymphoma); assay: Antiproliferative activity, DOHH2 cells (Alamar Blue); format: cell-based; settings: Homo sapiens, DOHH-2, Table 10, 72 h, average of several tests
Description: Antiproliferative activity of BTK inhibitors was measured in cell-based bioassay on B-cells cultures: Mino (mantle cell lymphoma, ATCC® CRL-3000™), Z-138 (mantle cell lymphoma, ATCC® CRL-3001™) and DOHH2 (follicular lymphoma, Creative Bioarray CSC-C0219) using cell viability reagent Alamar Blue (Invitrogen, #DAL 1100). Cells were cultured in 10% FB S-supplemented (HyClone, #SH3008803/Gibco, #16140-071) RPMI-1640 (PanEco, #S330p) for at least 1 passage after thawing, washed with PBS and passaged in 96-well culture plates (Corning, #3599) with growth medium with 10% FBS (HyClone, #SH3008803/Gibco, #16140-071) and antibiotic (50 μg/ml of gentamicin (Biolot, #1.3.16))≈3*10^4 cells in 50 μl of medium per well.
The compounds were dissolved in DMSO and diluted with the assay medium to final concentrations ranging from […]. 150 μl of each diluted compound were then added to each well (final concentration of DMSO was less than 1%) and incubated at 37° C. in an incubator under 5% of CO2 for 72 h. After incubation, 20 μl of Alamar Blue reagent (Invitrogen, #DAL1100) were added to each well. The plates were shaked on an orbital shaker (Biosan, Latvia) and then incubated for 14-16 hours at 37° C. in the incubator.
The number of living cells were estimated, measuring the fluorescence signal at the excitation wavelength (REx) of 540 nm and the emission wavelength (λEm) of 590 nm on a microplate reader (Tecan Infinite M200Pro, Switzerland).
For each compound, IC50 was calculated using Magellan 7.2 software (Tecan, Switzerland) approximating experimental points by four-parameter logistic model with the optimization by Levenberg-Marquardt.

[7] = Permeability through the monolayer of Caco-2 cells; format: in vitro ADME; settings: human; for Papp A→B at 2 h, 10 μM / Papp B→A at 2 h, 10 μM: 2 h at 37° C.; for efflux ratio at 2 h, 10 μM: read-out: efflux (Papp B-A/Papp A-B)
Excerpt: Assessment of permeability through the monolayer of Caco-2 cells allows to evaluate the ability of the candidate compounds to penetrate through biological membranes by active and passive transport.
Caco-2, the cells of the intestinal epithelium, had been cultured in transwell plate inserts with the filters (with pores of 0.4 μm, BD Falcon with High Density, #353495) for 21 days, and then the integrity of the monolayer were estimated with Lucifer Yellow dye (Sigma-Aldrich, USA) by standard protocol. When setting the A→B transfer, solutions of test substances were added in a buffer with pH 6.5 (Hanks solution, 10 mM HEPES, 15 mM glucose solution) with the concentration of 10 μM into the upper chamber; the lower chamber was filled with a buffer with pH 7.4 (Hanks solution, 10 mM HEPES, 15 mM glucose solution, 1% BSA). When setting B→A transfer, the upper chamber was filled with the buffer with pH 6.5, and solutions of the test substances were added in the buffer with pH 7.4 at the concentration of 10 μM in the lower chamber. Propranolol was used as a control substance (as it has high permeability).
We used gradient elution (1 mL/min flow rate). We determined the areas of peaks corresponding to the compounds. On the basis of peak areas in the calibration standards we determined the concentration of compound in the initial solution and in the samples from the wells of the upper and lower chambers.
Papp, permeability through the cell layer, was calculated using the following formula:
Papp=(C(t)*V)/(C(0)*t*Area), where
Papp is the effective constant of permeability, m/s V is the volume of solution (0.8 ml in A→B test, 0.2 ml in B→A test), ml Area is the surface area of the membrane (0.33 cm^2), cm^2 t is the time of incubation (7200 sec), sec C(0) is the concentration of the initial solution, μM C(t) is the concentration of the solution after 2 hours (the concentration in the sample from the well of the lower chamber in A→B test; the concentration in the sample from the well of the top chamber in B→A test), μM
The value was calculated with the following formula:
efflux=Papp B-A/Papp A-B, where
Papp A-B is the value of the permeability in the direct test (A→B); Papp B-A is the value of the permeability in the backward test in (B→A).

[8] = Stability in human blood plasma; settings: 10 μM in pooled human blood plasma, incubated 4 hours at 37° C.

| SMILES | Amount of substance in the sample in % (chemical stability) [1] | IC50 [4] | IC50 [5] | IC50 [6] | Papp A→B at 2 h, 10 μM [7] | Papp B→A at 2 h, 10 μM [7] | efflux ratio at 2 h, 10 μM [7] | Amount of substance in the sample, % (stability in human blood plasma) [8] | CC50 (HepG2)/IC50 (Mino) [2] | CC50 at 72 h [3] |
| --- | --- | --- | --- | --- | --- | --- | --- | --- | --- | --- |
| C=CC(=O)N1CCC[C@@H](n2nc(-c3ccc(Oc4ccncc4C#N)cc3)c3cncc(C#N)c32)C1 [BCD-BTK-213, (R)-1-(1-acryloylpiperidin-3-yl)-3-(4-(3-cyanopyridin-4-yloxy)phenyl)-1H-pyrazolo[4,3-c]pyridine-7-carbonitrile] | – | 9.7 µM | 3.19 µM | 19.7 µM | 8.39 ×10⁻⁶ cm/s | 5.17 ×10⁻⁶ cm/s | 0.62 | – | >31.3 | > 100 µM |
| C=CC(=O)N1CCC[C@@H](n2nc(-c3ccc(C(=O)Nc4ccc(F)cn4)cc3)c3cncc(Cl)c32)C1 [BCD-BTK-212, (R)-4-(1-(1-acryloylpiperidin-3-yl)-7-chloro-1H-pyrazolo[4,3-c]pyridin-3-yl)-N-(5-fluoropyridin-2-yl)benzamide] | – | 14.8 µM | 3.5 µM | – | – | – | – | 90.8% | 8.01 | 28.1 µM |
| C=CC(=O)N1CCC[C@@H](n2nc(-c3ccc(-n4ccc(=O)cc4)cc3F)c3cncc(Cl)c32)C1 [BCD-BTK-204, (R)-1-(4-(1-(1-acryloylpiperidin-3-yl)-7-chloro-1H-pyrazolo[4,3-c]pyridin-3-yl)-3-fluorophenyl)pyridin-4(1H)-one] | – | 20.9 µM | 21 µM | 23.5 µM | – | – | – | 91.9% | 2.95 | 62 µM |
| C=CC(=O)N1CCC[C@@H](n2nc(-c3ccc(-n4ccc(=O)cc4)c(F)c3)c3cncc(Cl)c32)C1 [BCD-BTK-205, (R)-1-(4-(1-(1-acryloylpiperidin-3-yl)-7-chloro-1H-pyrazolo[4,3-c]pyridin-3-yl)-2-fluorophenyl)pyridin-4(1H)-one] | – | 24.9 µM | 16.6 µM | 20.2 µM | – | – | – | 88.6% | 3.45 | 57.2 µM |
| C=CC(=O)N1CCC[C@@H](n2nc(-c3ccc(C(=O)Nc4cc(C(F)(F)CC)ccn4)cc3)c3c(N)ncc(Cl)c32)C1 [BCD-BTK-231, (R)-4-(1-(1-acryloylpiperidin-3-yl)-4-amino-7-chloro-1H-pyrazolo[4,3-c]pyridin-3-yl)-N-(4-(1,1-difluoropropyl)pyridin-2-yl)benzamide] | 100% | 3.39 µM | 2.26 µM | – | 9.8 ×10⁻⁶ cm/s | 1.84 ×10⁻⁶ cm/s | 0.19 | 93.1% | 4.01 | 9.08 µM |

Now from value to molecule, other results behind:

| Amount of substance in the sample in % (chemical stability) [1] | IC50 [4] | IC50 [5] | IC50 [6] | Papp A→B at 2 h, 10 μM [7] | Papp B→A at 2 h, 10 μM [7] | efflux ratio at 2 h, 10 μM [7] | Amount of substance in the sample, % (stability in human blood plasma) [8] | SMILES | CC50 (HepG2)/IC50 (Mino) [2] | CC50 at 72 h [3] |
| --- | --- | --- | --- | --- | --- | --- | --- | --- | --- | --- |
| 99.8% | 30.1 µM | 17.9 µM | 20.6 µM | – | – | – | – | C=CC(=O)N1CCC[C@@H](n2nc(-c3cnc(C(=O)Nc4cccc(F)n4)nc3)c3cncc(Cl)c32)C1 [BCD-BTK-277, (R)-5-(1-(1-acryloylpiperidin-3-yl)-7-chloro-1H-pyrazolo[4,3-c]pyridin-3-yl)-N-(6-fluoropyridin-2-yl)pyrimidine-2-carboxamide] | 2.33 | 41.9 µM |
| 94.8% | 16.6 µM | 7.91 µM | – | – | – | – | 81.7% | CC#CC(=O)N1CC[C@@H](n2nc(-c3ccc(Oc4ccncc4)cc3)c3cncc(Cl)c32)C1 [BCD-BTK-265, (R)-1-(3-(7-chloro-3-(4-(pyridin-4-yloxy)phenyl)-1H-pyrazolo[4,3-c]pyridin-1-yl)pyrrolidin-1-yl)but-2-yn-1-one] | 2.09 | 16.5 µM |
| 100% | 5.01 µM | 4.27 µM | – | 8.3 ×10⁻⁶ cm/s | 0.95 ×10⁻⁶ cm/s | 0.11 | 100.0% | CC#CC(=O)N1CC(Cn2nc(-c3ccc(Oc4ccncc4)cc3)c3cncc(Cl)c32)C1 [BCD-BTK-261, 1-(3-((7-chloro-3-(4-(pyridin-4-yloxy)phenyl)-1H-pyrazolo[4,3-c]pyridin-1-yl)methyl)azetidin-1-yl)but-2-yn-1-one] | 1.95 | 8.33 µM |
| 100% | > 100 µM | 40.1 µM | – | – | – | – | 91.3% | C=CC(=O)N1CCC[C@@H](n2nc(-c3ccc(Oc4cncc(C(N)=O)c4)cc3)c3cncc(F)c32)C1 [BCD-BTK-274, (R)-5-(4-(1-(1-acryloylpiperidin-3-yl)-7-fluoro-1H-pyrazolo[4,3-c]pyridin-3-yl)phenoxy)nicotinamide] | 0.95 | 38 µM |
| 100% | 8.29 µM | 10.2 µM | – | – | – | – | 100.0% | CC#CC(=O)N1CCC[C@@H](n2nc(-c3ccc(C(=O)Nc4ccccn4)cc3)c3cncc(Cl)c32)C1 [BCD-BTK-289, (R)-4-(1-(1-(but-2-ynoyl)piperidin-3-yl)-7-chloro-1H-pyrazolo[4,3-c]pyridin-3-yl)-N-(pyridin-2-yl)benzamide] | 1.85 | 18.8 µM |
| 95.9% | 10.8 µM | 15.3 µM | – | 6.27 ×10⁻⁶ cm/s | 3.58 ×10⁻⁶ cm/s | 0.57 | 88.6% | C=CC(=O)N1CCC[C@@H](n2nc(-c3ccc(Oc4ccncc4C#N)cc3)c3c(N)ncc(Cl)c32)C1 [BCD-BTK-232, (R)-4-(4-(1-(1-acryloylpiperidin-3-yl)-4-amino-7-chloro-1H-pyrazolo[4,3-c]pyridin-3-yl)phenoxy)nicotinonitrile] | 2.04 | 31.1 µM |
| 100% | 35.2 µM | 20.6 µM | – | – | – | – | 86.7% | C=CC(=O)N1CCC[C@H]1Cn1nc(-c2ccc(Oc3ccncc3)cc2)c2cncc(Cl)c21 [BCD-BTK-263, (S)-1-(2-((7-chloro-3-(4-(pyridin-4-yloxy)phenyl)-1H-pyrazolo[4,3-c]pyridin-1-yl)methyl)pyrrolidin-1-yl)prop-2-en-1-one] | >2.42 | > 50 µM |
